Reference: patent publication US20240335439A1, “USE OF AND METHOD FOR TELAPREVIR IN PREPARATION OF DRUG FOR TREATING AN ISCHEMIA/REPERFUSION INJURY AND CYTOPROTECTIVE DRUG” (THE THIRD XIANGYA HOSPITAL OF CENTRAL SOUTH UNIVERSITY, priority 2021, published 2024)

What was measured:
[1] = test system: ischemic stroke mouse models; assay: Ischemic stroke mouse model (MCAO 1 h, reperfusion 24 h); type: in vivo, C57BL/6J mice; conditions: telaprevir 90 mg/kg intramuscular after 1 hour of ischemia and 1 hour of reperfusion
Procedure: Experimental animals: 7-week-old male C57BL/6J mice. The experimental animals were raised for one week in an environment with a temperature of 25° C., a relative humidity of 60%, free drinking water, and timed and quantified feeding, and then administered according to the requirements of each experimental group.
Method for building an ischemic stroke mouse model: A cerebral ischemia/reperfusion mouse model was prepared by a middle cerebral artery occlusion (MCAO) method. The steps were as follows: after an 8-week-old male C57BL/6J mouse was anesthetized by intraperitoneal injection with 0.3% pentobarbital sodium (20 mL/kg), a left common carotid artery (CCA) was isolated, and a left external carotid artery (ECA) and internal carotid artery (ICA) were isolated upwards; the ECA and ICA were temporarily occluded with ophthalmic forceps, and a proximal end of the CCA was ligated; a knotted spare silk suture was placed at a distal end of the CCA, a small incision was cut below the suture, an occlusion suture was inserted into the internal carotid artery, arterial clips on the ECA and ICA were released, and the occlusion suture was delivered into the cranium along the ICA; and when encountering resistance, the silk suture was tightened, the occlusion suture was secured. […]
Neurological function scores of mice were detected and cerebral infarct volumes were measured.

SH-SY5Y nerve cells = assay: Hypoxia/reoxygenation injury of SH-SY5Y nerve cells, MTS viability and LDH release; type: cell-based; conditions: hypoxia 8 h / reoxygenation 24 h, telaprevir 1, 5, 10 μM, vs Hypoxia
Procedure: The measurement followed the operating instructions of a commercially available lactate dehydrogenase kit (Shanghai Beyotime Biotechnology Co., Ltd., China). Groups were designed according to experimental requirements, and a background blank control group (without cells) and a maximum enzyme release group were additionally set. An LDH release reagent in a volume of 1/10 of the original medium was added to the maximum enzyme activity well group of the sample, and the culture continued for 1 hour. 120 μL of supernatant was pipetted from each well and added to a new 96-well plate, and 60 μL of LDH detection working solution was added to each well, followed by uniform mixing and incubation at room temperature for 30 minutes (in dark). The absorbance of the sample was measured at 490 nm. Calculation: LDH release rate of cells (%)=(absorbance of the drug treatment group-absorbance of the control group)/(absorbance of the maximum enzyme release group-absorbance of the control group)×100%. When the absorbance value of each group was calculated, the absorbance value of the background blank control group was first subtracted.
SH-SY5Y nerve cells were purchased from the Xiangya Cell Bank of Central South University. […]
Cell viability was detected by MTS and cell injury was detected by an LDH release rate. […]

In the case of CCC[C@H](NC(=O)[C@@H]1[C@H]2CCC[C@H]2CN1C(=O)[C@@H](NC(=O)[C@@H](NC(=O)c1cnccn1)C1CCCCC1)C(C)(C)C)C(=O)C(=O)NC1CC1 [telaprevir], the “neurological impairment symptoms (Longa neurological function score) of mice” value ([1]; ##P<0.01 vs I/R, FIG. 3B) is reported as “significantly improve”, the “cerebral infarct volume of mice (TTC staining)” value ([1]; vs I/R, FIG. 3A) is reported as “significantly decreased” and the “cell viability (MTS) of hypoxia/reoxygenation treated SH-SY5Y cells” value (SH-SY5Y nerve cells; FIG. 5A) is reported as “significantly inhibit a decrease”. The “LDH release rate of hypoxia/reoxygenation treated SH-SY5Y cells” value (SH-SY5Y nerve cells; FIG. 5B) was “significantly inhibit”.
